Experimental data taken from DBAASP.
Converted amounts (≈) assume the structure as drawn.

Legend:
Test in all cases: ≥ marks a high value that may be exact or a test limit, other limits are often not marked, values filed in µg/mL are converted to µM
[1] = tested on: Pseudomonas aeruginosa PAK
Staphylococcus aureus = tested on: Staphylococcus aureus
[2] = tested on: Streptococcus gordonii Challis DL1
[3] = tested on: Streptococcus mitis ATCC 903
[4] = tested on: Streptococcus mutans UA159
[5] = tested on: Streptococcus sanguinis NY101
[6] = tested on: Bacillus subtilis ATCC 6633
[7] = tested on: Escherichia coli ATCC 25922
[8] = tested on: Klebsiella pneumoniae ATCC 10031
[9] = tested on: Micrococcus luteus ATCC 10240
[10] = tested on: Pseudomonas aeruginosa ATCC 27853
[11] = tested on: Salmonella enterica subsp. enterica serovar Typhimurium ATCC 14028
[12] = tested on: Shigella dysenteriae ATCC 9752
[13] = tested on: Staphylococcus aureus ATCC 6538P
[14] = tested on: Staphylococcus aureus TK784
[15] = tested on: Staphylococcus epidermidis ATCC 12228
[16] = tested on: Staphylococcus aureus ATCC BAA-1556
[17] = tested on: Acinetobacter baumannii 97830
[18] = tested on: Acinetobacter baumannii 9931
[19] = tested on: Acinetobacter baumannii ATCC 19606
[20] = tested on: Bacillus subtilis ATCC 23857
Escherichia coli 780 = tested on: Escherichia coli 780
Escherichia coli 804 = tested on: Escherichia coli 804
[21] = tested on: Klebsiella pneumoniae ATCC 700603
[22] = tested on: Pseudomonas aeruginosa 50
[23] = tested on: Pseudomonas aeruginosa 73
[24] = tested on: Pseudomonas aeruginosa ATCC 9027
[25] = tested on: Staphylococcus aureus 113
Staphylococcus aureus 75 = tested on: Staphylococcus aureus 75
[26] = tested on: Staphylococcus aureus ATCC 29213
[27] = tested on: Acinetobacter baumannii LMG 01041
[28] = tested on: Escherichia coli LMG 15862
[29] = tested on: Klebsiella aerogenes LMG 02094
[30] = tested on: Klebsiella pneumoniae LMG 20218
[31] = tested on: Pseudomonas aeruginosa LMG 6395

Compound `CC[C@H](C)[C@H](NC(=O)[C@H](Cc1ccccc1)NC(=O)[C@H](Cc1cnc[nH]1)NC(=O)[C@H](CCCCN)NC(=O)[C@@H](NC(=O)[C@@H](N)Cc1ccccc1)[C@@H](C)CC)C(=O)N[C@@H](Cc1cnc[nH]1)C(=O)N[C@@H](CCCN=C(N)N)C(=O)N[C@@H](Cc1ccccc1)C(=O)N[C@@H](CO)C(=O)NCC(=O)NCC(=O)N[C@@H](CCCN=C(N)N)C(=O)N[C@@H](Cc1c[nH]c2ccccc12)C(=O)N[C@@H](CCCN=C(N)N)C(=O)N[C@@H](Cc1c[nH]c2ccccc12)C(=O)N[C@@H](CCCN=C(N)N)C(=O)N[C@@H](Cc1c[nH]c2ccccc12)C(=O)N[C@@H](Cc1ccccc1)C(N)=O` [FIKHFIHRFSGGRWRWRWF] has an MIC [1] of 23.9 µM (≈ 62.5 µg/mL), an MIC (Staphylococcus aureus) of 12.2 µM (≈ 32 µg/mL) and an MIC [2] of 12.2 µM (≈ 32 µg/mL). For the same compound, the MIC [3] was 12.2 µM (≈ 32 µg/mL), the MIC [4] was 3.05 µM (≈ 8 µg/mL) and the MIC [5] was 12.2 µM (≈ 32 µg/mL).

Work on `CC(C)C[C@H](NC(=O)[C@H](CC(C)C)NC(=O)[C@H](CCCCN)NC(=O)[C@H](CCCCN)NC(=O)[C@H](CC(C)C)NC(=O)[C@H](CC(C)C)NC(=O)[C@H](CCCCN)NC(=O)[C@H](CCCCN)NC(=O)[C@H](CC(C)C)NC(=O)[C@H](Cc1c[nH]c2ccccc12)NC(=O)[C@@H](N)CCCCN)C(N)=O` [KWLKKLLKKLL] yielded an MIC [6] of 1.42 µM (≈ 2 µg/mL), an MIC [7] of 1.42 µM (≈ 2 µg/mL) and an MIC [8] of 1.42 µM (≈ 2 µg/mL). The MIC [9] was 2.84 µM (≈ 4 µg/mL), the MIC [10] was 5.67 µM (≈ 7.99 µg/mL) and the MIC [11] was 1.42 µM (≈ 2 µg/mL). The MIC [12] was 0.709 µM (≈ 0.999 µg/mL), the MIC [13] was 1.42 µM (≈ 2 µg/mL) and the MIC [14] was 5.67 µM (≈ 7.99 µg/mL). For the same compound, the MIC [15] was 1.42 µM (≈ 2 µg/mL).

In the case of `CC(C)C[C@H](NC(=O)[C@H](CC(C)C)NC(=O)[C@H](CC(C)C)NC(=O)[C@H](CC(C)C)NC(=O)[C@H](CC(C)C)NC(=O)[C@H](CC(C)C)NC(=O)[C@H](CCCCN)NC(=O)[C@H](CCCCN)NC(=O)[C@@H](N)CC(C)C)C(N)=O` [LKKLLLLLL], the MIC [16] is reported as at least 100 µM.

With `CC(C)C[C@H](NC(=O)[C@H](CCCCN)NC(=O)[C@H](CC(C)C)NC(=O)[C@H](CC(C)C)NC(=O)[C@H](CC(C)C)NC(=O)[C@H](CC(C)C)NC(=O)[C@H](CC(C)C)NC(=O)[C@H](CCCCN)NC(=O)[C@@H](N)CC(C)C)C(N)=O` [LKLLLLLKL] the MIC [16] was at least 100 µM.

`CC(C)C[C@H](NC(=O)[C@H](CC(C)C)NC(=O)[C@H](CC(C)C)NC(=O)[C@H](CCCCN)NC(=O)[C@H](CC(C)C)NC(=O)[C@H](CC(C)C)NC(=O)[C@H](CC(C)C)NC(=O)[C@@H](N)CC(C)C)C(=O)N[C@@H](CCCCN)C(N)=O` [LLLLKLLLK] gave an MIC [16] of at least 100 µM.

Work on `CC(C)C[C@H](NC(=O)[C@H](CCCN=C(N)N)NC(=O)[C@H](CCCN=C(N)N)NC(=O)[C@H](Cc1c[nH]c2ccccc12)NC(=O)[C@H](Cc1c[nH]c2ccccc12)NC(=O)[C@H](Cc1c[nH]c2ccccc12)NC(=O)[C@H](CCCN=C(N)N)NC(=O)[C@H](CCCN=C(N)N)NC(=O)[C@@H](N)CC(C)C)C(N)=O` [LRRWWWRRL] yielded an MIC [17] of 16 µM (≈ 22.8 µg/mL), an MIC [18] of 16 µM (≈ 22.8 µg/mL) and an MIC [19] of 64 µM (≈ 91.3 µg/mL). For the same compound, the MIC [20] was 2 µM (≈ 2.85 µg/mL), the MIC (Escherichia coli 780) was 8 µM (≈ 11.4 µg/mL) and the MIC (Escherichia coli 804) was at least 32 µM. For the same compound, the MIC [21] was 32 µM (≈ 45.7 µg/mL), the MIC [22] was 8 µM (≈ 11.4 µg/mL) and the MIC [23] was at least 64 µM. For the same compound, the MIC [10] was 16 µM (≈ 22.8 µg/mL), the MIC [24] was 16 µM (≈ 22.8 µg/mL) and the MIC [25] was 4 µM (≈ 5.71 µg/mL). It also gave an MIC (Staphylococcus aureus 75) of 4 µM (≈ 5.71 µg/mL), an MIC [26] of 4 µM (≈ 5.71 µg/mL) and an MIC [15] of 2 µM (≈ 2.85 µg/mL).

In the case of `CC(C)C[C@H](NC(=O)[C@H](CCCN=C(N)N)NC(=O)[C@H](Cc1c[nH]c2ccccc12)NC(=O)[C@H](Cc1c[nH]c2ccccc12)NC(=O)[C@H](Cc1c[nH]c2ccccc12)NC(=O)[C@H](CCCN=C(N)N)NC(=O)[C@@H](N)CC(C)C)C(N)=O` [LRWWWRL], the MIC [17] is reported as 16 µM (≈ 17.8 µg/mL), the MIC [18] is reported as 16 µM (≈ 17.8 µg/mL) and the MIC [19] is reported as 64 µM (≈ 71.3 µg/mL). For the same compound, the MIC [20] was 8 µM (≈ 8.91 µg/mL), the MIC (Escherichia coli 780) was 16 µM (≈ 17.8 µg/mL) and the MIC (Escherichia coli 804) was 16 µM (≈ 17.8 µg/mL). For the same compound, the MIC [21] was 32 µM (≈ 35.7 µg/mL), the MIC [22] was 16 µM (≈ 17.8 µg/mL) and the MIC [23] was at least 32 µM. The MIC [10] was 16 µM (≈ 17.8 µg/mL), the MIC [24] was 32 µM (≈ 35.7 µg/mL) and the MIC [25] was 8 µM (≈ 8.91 µg/mL). The MIC (Staphylococcus aureus 75) was 4 µM (≈ 4.46 µg/mL), the MIC [26] was 4 µM (≈ 4.46 µg/mL) and the MIC [15] was 8 µM (≈ 8.91 µg/mL).

With `CC[C@H](C)[C@H](NC(=O)[C@H](CCCN=C(N)N)NC(=O)[C@H](CCCN=C(N)N)NC(=O)[C@H](CCCCN)NC(=O)[C@@H](NC(=O)[C@@H](N)CCCN=C(N)N)[C@@H](C)CC)C(=O)N[C@@H](CCCCN)C(=O)N[C@@H](CCCCN)C(=O)N[C@@H](Cc1c[nH]c2ccccc12)C(=O)N[C@@H](CC(C)C)C(=O)N[C@@H](CCCN=C(N)N)C(N)=O` [RIKRRIKKWLR] the MIC [27] was at least 256 µM, the MIC [28] was 24 µM (≈ 37.2 µg/mL) and the MIC [29] was at least 256 µM. The MIC [30] was at least 256 µM and the MIC [31] was at least 32 µM.

Work on `CC[C@H](C)[C@H](NC(=O)[C@H](CCCN=C(N)N)NC(=O)[C@H](CCC(N)=O)NC(=O)[C@@H](NC(=O)[C@@H](NC(=O)[C@@H](N)CCCN=C(N)N)[C@@H](C)CC)C(C)C)C(=O)N[C@@H](CCCCN)C(=O)N[C@@H](CCCCN)C(=O)N[C@@H](Cc1c[nH]c2ccccc12)C(=O)N[C@@H](CC(C)C)C(=O)N[C@@H](CCCN=C(N)N)C(N)=O` [RIVQRIKKWLR] yielded an MIC [27] of at least 64 µM, an MIC [28] of 12 µM (≈ 17.9 µg/mL) and an MIC [29] of at least 128 µM. The MIC [30] was at least 32 µM and the MIC [31] was 16 µM (≈ 23.9 µg/mL).

Work on `CC[C@H](C)[C@H](NC(=O)[C@H](CCCN=C(N)N)NC(=O)[C@H](CCC(N)=O)NC(=O)[C@@H](NC(=O)[C@@H](NC(=O)[C@@H](N)CCCN=C(N)N)[C@@H](C)CC)C(C)C)C(=O)N[C@@H](CCCCN)C(=O)N[C@@H](CCCCN)C(=O)N[C@@H](Cc1c[nH]c2ccccc12)C(=O)N[C@@H](CCCN=C(N)N)C(N)=O` [RIVQRIKKWR] yielded an MIC [27] of at least 256 µM, an MIC [28] of at least 256 µM and an MIC [29] of at least 256 µM. For the same compound, the MIC [30] was at least 256 µM and the MIC [31] was at least 256 µM.

In the case of `NC(=O)[C@H](Cc1c[nH]c2ccccc12)NC(=O)[C@H](Cc1c[nH]c2ccccc12)NC(=O)[C@H](CCCN=C(N)N)NC(=O)[C@H](Cc1c[nH]c2ccccc12)NC(=O)[C@H](Cc1c[nH]c2ccccc12)NC(=O)[C@H](Cc1c[nH]c2ccccc12)NC(=O)[C@H](CCCN=C(N)N)NC(=O)[C@H](Cc1c[nH]c2ccccc12)NC(=O)[C@@H](N)Cc1c[nH]c2ccccc12` [WWRWWWRWW], the MIC [17] is reported as at least 64 µM, the MIC [18] is reported as at least 32 µM and the MIC [19] is reported as over 128 µM. For the same compound, the MIC [20] was 4 µM (≈ 6.53 µg/mL), the MIC (Escherichia coli 780) was at least 64 µM and the MIC (Escherichia coli 804) was at least 64 µM. For the same compound, the MIC [21] was 32 µM (≈ 52.3 µg/mL), the MIC [22] was at least 128 µM and the MIC [23] was at least 128 µM. The MIC [10] was over 128 µM, the MIC [24] was over 128 µM and the MIC [25] was 16 µM (≈ 26.1 µg/mL). It also gave an MIC (Staphylococcus aureus 75) of 8 µM (≈ 13.1 µg/mL), an MIC [26] of 8 µM (≈ 13.1 µg/mL) and an MIC [15] of 4 µM (≈ 6.53 µg/mL).
